Data from patent US20060088542A1 (priority 2002, published 2006).
“Also recorded” adds a separate entry of the source.

How the values were obtained:
Balb/C mice [1] = experiment: ELISA for subclass (IgG1/IgG2a) of HBsAg specific antibody; format: in vivo; details: Example 6; HBsAg specific antibody in serum; FIG. 15
Balb/C mice [2] = experiment: g-IFN ELISPOT after PMID with HBV sAg/cAg plasmid; format: in vivo
Balb/C mice [3] = experiment: Anti-sAg and anti-cAg antibody ELISAs after PMID with HBV sAg/cAg plasmid; format: in vivo; details: Example 7; either HBV antigen (sAg, cAg); data not shown
Balb/C mice [4] = experiment: IL-4 ELISPOT after PMID with HBV sAg/cAg plasmid; format: in vivo
Balb/C mice [5] = details: Example 2; prime and boost, HBsAg plasmid with HCMV promoter; FIG. 3
Balb/C mice [6] = experiment: IFN-g ELISPOT of spleen cells after HBsAg DNA vaccine immunization; details: Example 2; prime and boost; FIG. 4
Balb/C mice [7] = experiment: CD8 IFN-g ELISA of spleen cells after HBsAg DNA vaccine immunization; details: Example 2; prime and boost; FIG. 4
[8] = Example 7, summary of both experiments

Compound | ratio of IgG1/IgG2a (Balb/C mice [1]) | g-IFN secretion (Balb/C mice [2]; Example 7, first experiment, highest dose of DNA, delivered right before or right after PMID) | g-IFN secretion (Balb/C mice [2]; Example 7, first experiment, highest dose of DNA, given 24 hours after PMID) | g-IFN secretion (Balb/C mice [2]; Example 7, first experiment, low doses of DNA, administration 24 hours post PMID compared with other time points) | g-IFN secretion (Balb/C mice [2]; Example 7, first experiment, low doses of HBV-encoding DNA, right before, right after or 24 hours post PMID) | g-IFN response with class I-restricted peptide (CD8+ cells) (Balb/C mice [2]; Example 7, first experiment, not shown) | frequency of cells which secreted g-IFN in response to antigen (Balb/C mice [2]; Example 7, first experiment, sAg peptide library (primarily CD4+ cells), 2 weeks post prime, FIG. 16) | IFN-g ELISPOT response (Balb/C mice [2]; [8]) | optimal time point for augmenting g-IFN-secreting cells (Balb/C mice [2]; Example 7, time of administration relative to PMID) | antibody titers (Balb/C mice [3]) | IL-4 secretion, as measured by ELISPOT assay (Balb/C mice [4]; Example 7, first experiment (prime only), not shown) | EL-4 ELISPOTs (Balb/C mice [4]; [8]) | Antibody levels (Balb/C mice [5]) | cellular response, ELISPOTs (Balb/C mice [6]) | cellular response, IFN-g ELISA (Balb/C mice [7])
CCCCC[C@H](O)/C=C/[C@H]1[C@H](O)CC(=O)[C@@H]1C/C=C\CCCC(=O)O [PGE2] | does not have the same effect overall |  |  |  |  |  |  |  |  |  |  |  |  |  | 
CC(C)Cn1cnc2c(N)nc3ccccc3c21 [imiquimod, 1-(2-methyl-propyl)-1H-imidazo[4,5-c]quinolin-4-amine] |  | slightly inhibitory | augments PMID | most effective | enhances g-IFN secretion | comaparable responses | enhancement of the frequency of cells which secreted g-IFN | primarily enhanced; also recorded: augments the frequency of g-IFN-secreting cells | about a day and upto 7 days after PMID | little effect; also recorded: did not enhance antibody responses | no effect | little effect | strong reduction in antibody levels | enhanced the responses | enhanced the responses
